Read-outs that look alike come from different tables or passages of the source. Where a SMILES comes first, the peptide text is derived from it. Bridges are numbered along the chain shown (N, C = ends). Roman numbers before positions name the chains, in order. Where no end group is shown, it is not given here.
How the values were obtained:
[1] = test system: C. guilliermondi CCARM 14018; format: cell-based; conditions: CCARM 14018, 24 h
Experimental: (§1) To determine the candidacidal activity of the peptides, we used Candida strains obtained from the Culture collection of antimicrobial resistant microbes at Seoul Women’s University in Korea. These included three Candida albicans (CCARM 14020, 14021, 14022), Candida guillermondi and Candida tropicalis. In addition, Candida albicans SC5413 was kindly provided by Dr Jeong-Yoon Kim at the Department of Microbiology & Molecular Biology, Chungnam University, Korea. Yeast were cultured overnight at 30°C in 10 ml of yeast extract-peptone-dextrose (YPD) broth (Qbiogene), then diluted in 10 ml of YPD broth to OD600 = 0.2 and grown for an additional 4 h with shaking at 30°C until OD600 = 0.8 in order to obtain mid-log phase cultures. The peptides (Hst 5, P113, HHP1, HHP2, PH1, PH2, di-PH1, di-PH2, WP1, di-WP2, di-15Hc and di-18Hc) in this study were synthesized by using standard solid-phase synthesis protocols and were purified by reversed-phase high-performance liquid chromatography at Anygen Inc. (Korea). FITC-labeled peptides (F-Hst5, F-P113, F-HHP1, F-di-PH2, F-di-WP2 and F-di-18Hc) were also synthesized by 6-aminohexnoic acid linker at Anygen (Korea) for confocal experiments.
(§2) The candidacidal activities of the peptides were tested by using standard microdilution plate assays, radial diffusion assays and broth dilution assay slightly modified from the procedure recommended by the National Committee for Clinical Laboratory Standards. For the candidacidal assays, C. albicans cells were grown in YPD medium and washed twice with 10 mM sodium phosphate buffer (NaPB; Na2HPO4, NaH2PO4, pH 7.4). The cells (1 x 10^6) were then mixed with different concentrations of peptides and incubated at 30°C with constant shaking for 60 min. For energy depletion experiments, cells were pre-incubated with 10 mM NaPB containing 5 mM NaN3 at 30°C for 60 min before the addition of peptides. The cell suspensions were diluted in 10 mM NaPB and aliquots of 500 cells were spread onto YPD agar plates then incubated for 24 h at 30°C to visualize the surviving colonies. Cell survival was expressed as a percentage of that for the control, and the loss of viability was calculated as [1 x (number of colonies from peptide-treated cells/number of colonies from control cells)] x 100. Candidacidal assays were performed in triplicate. For the radial diffusion assay, C. albicans cells were grown in YPD medium overnight and washed twice with 10 mM NaPB. Washed yeast-phase C. albicans cells (1 x 10^6 CFU) were trapped in thin underlay gels containing 9 mM sodium phosphate, 1 mM sodium citrate buffer, 1% (wt/vol) agarose (A6013; Sigma), and 0.3 mg of Sabouraud dextrose broth (Difco)/ml. After incubation at 37°C for 3 h, a 10 ml overlay gel of 1% agarose and 6% Sabouraud dextrose broth was poured on the underlay gel and then the plates were incubated overnight at 37°C. The clear-zone diameters were measured to the nearest 0.1 mm and graphed against the peptide concentration. Zone diameters were expressed in units (0.1 mm = 1 unit). For the broth dilution assay, the Candida strains were cultured in LYM broth for 18 h at 30°C. The numbers of yeasts were counted using a hemocytometer. Stock peptide solutions were prepared to a concentration of 320 μg/ml in distilled water, and were then serially diluted twofold, to 5 μg/ml. 100 μl aliquots of the diluted culture media containing candida cells (1 x 10^3) were dispensed into the wells of 96-well polypropylene microtiter plates (Costar 3879, Corning, NY), to which peptide solution (11 μl) was then added. In the experiments conducted to assess the candidacidal activity of peptides in the presence of salt, we used LYM supplemented with 150 mM NaCl for the culture medium, which was mixed with the peptide solution. The antifungal activities were evaluated after 24 h of incubation at 30°C by the observation of visible turbidity the wells. […]

[2] = test system: all tested Candida strains; format: cell-based; conditions: 4 h
Experimental: as §1, §2

C.albicans CCARM 14022 = format: cell-based, Candida albicans
Experimental: as §1, §2

C.albicans CCARM 14020 = format: cell-based, Candida albicans; conditions: CCARM 14020, 24 h
Experimental: as §1, §2

C.albicans CCARM 14021 = format: cell-based, Candida albicans
Experimental: as §1, §2

C.albicans SC5413 = format: cell-based, Candida albicans; conditions: SC5413, 24 h
Experimental: as §1, §2

[3] = broth dilution, LYM broth, 24 h at 30°C, interval a–b

Compound | MICs [1] [µg/mL] | MIC values [2] [µg/mL] | MICs (C.albicans CCARM 14022; CCARM 14022, 24 h) [µg/mL] | MICs (C.albicans CCARM 14020) [µg/mL] | MICs (C.albicans CCARM 14021; CCARM 14021, 24 h) [µg/mL] | MICs (C.albicans SC5413) [µg/mL] | MICs (C.albicans CCARM 14022; [3]) | MICs (C.albicans CCARM 14021; [3])
WLNALLHHGYKRKFH-NH2 [HHP1] | 1 to 2 | 2 to 4 | 4 to 8 | 2 to 4 | 2 to 4 | 2 to 4 | – | –
ALLHHGYKRKFH-NH2 [HHP2] | – | – | – | 8 to 16 | – | 16 to 32 | 32< μg/ml | 32< μg/ml
AKRHHGLNCAKGVLA-NH2 [PH1] | – | – | 8 to 16 | 16 to 32 | 8 to 16 | 16 to 32 | – | –
CC(C)C[C@H](NC(=O)CNC(=O)[C@H](Cc1c[nH]cn1)NC(=O)[C@H](Cc1c[nH]cn1)NC(=O)[C@H](CCCNC(=N)N)NC(=O)[C@H](CCCCN)NC(=O)[C@H](C)N)C(=O)N[C@@H](CC(N)=O)C(=O)N[C@@H](CSSC[C@H](NC(=O)[C@H](CC(N)=O)NC(=O)[C@H](CC(C)C)NC(=O)CNC(=O)[C@H](Cc1c[nH]cn1)NC(=O)[C@H](Cc1c[nH]cn1)NC(=O)[C@H](CCCNC(=N)N)NC(=O)[C@H](CCCCN)NC(=O)[C@H](C)N)C(=O)N[C@@H](C)C(=O)N[C@@H](CCCCN)C(=O)NCC(=O)N[C@H](C(=O)N[C@@H](CC(C)C)C(=O)N[C@@H](C)C(N)=O)C(C)C)C(=O)N[C@@H](C)C(=O)N[C@@H](CCCCN)C(=O)NCC(=O)N[C@H](C(=O)N[C@@H](CC(C)C)C(=O)N[C@@H](C)C(N)=O)C(C)C [di-PH1] (I: H-AKRHHGLNCAKGVLA-NH2 / II: H-AKRHHGLNCAKGVLA-NH2; disulfide I:9-II:9 (inferred); N-terminus assumed) | – | – | 4 to 8 | 16 to 32 | 4 to 8 | 16 to 32 | – | –
AKRHHGLNCAKFH-NH2 [PH2] | – | – | 8 to 16 | 1 to 2 | 1 to 2 | 1 to 2 | – | –
WLNAKRHHGYKRKFH-NH2 [WP1] | – | – | – | 4 to 8 | 8 to 16 | 4 to 8 | 32< μg/ml | –
